According to patent US20080255232A1, “Naphthyl Derivatives as Inhibitors of Beta-Amyloid Aggregation” (SIGMA-TAU INDUSTRIE FARMACEUTICHE RIUNITE S.P.A., priority 2005, published 2008):
Structures can show the parent of a compound that is named as a salt. Where two headings read alike, the source gives them in different places. Blank lines part the entries; values can stand above or below the compound they belong to.

How the values were obtained:
[1] = target: T1, peptide βA1-42 (Homo sapiens, UniProt P05067); experiment: Anti-aggregating activity on peptide βA1-42, thioflavin T fluorescence; assay type: biochemical; conditions: thioflavin T binding, aggregate + non aggregate β-A(1-42), 37° C., 24 hours; read-out: IC50 (dose reducing the aggregate formation of the 50%)
T1 construct: The β-A(1-42) was dissolved in a mixture of Acetonitrile and distilled water
T1 sequence (P05067 672-713): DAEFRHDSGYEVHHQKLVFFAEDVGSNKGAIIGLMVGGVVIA
Protocol: The anti-aggregating activity of the compound of formula (I) on the peptide βA1-42 is carried out via the binding of the thioflavin T according to the following procedure.
The β-A(1-42) was dissolved in a mixture of Acetonitrile and distilled water (CH3CN/H2O 1:1) to the final concentration of 1 mg/mL. The solution was divided in aliquots of 2 mL and stored at −80° C. until the use. The work solution was prepared diluting the stock solution five times with H2O (final concentration 44 μmol/L).
The β-A(1-42) was dissolved in a mixture of Acetonitrile and distilled water (CH3CN/H2O 1:1) to the final concentration of 1 mg/mL. An aliquot of 2 mL was freeze-dried to eliminate the trifluoroacetic acid residual of the peptide synthesis. The β-A(1-42) peptide was subsequently dissolved in 0.1 mL of DMSO and 5.0 mL of 2×PBS, pH 7.4. Once dissolved the β-A(1-42) was incubated to 37° C. for 8 days, at the end, after sonication, it was diluted five times with 2×PBS (final concentration 17.4 μmol/L). Waiting to be used, the aggregate β-A(1-42) was divided in aliquots and stored at −80° C.
Fluorescence Measurement with Thioflavin T
Scheme of added volumes in 96-well plates:
The assay was performed in triplicate in 96-well plates as reported above in scheme. Test compounds were added in the wells containing the aggregate β-A(1-42) then, 15 after minutes, the non-aggregate β-A(1-42) was added. The 96-well plates were incubated at 37° C. under agitation for 24 hours.
The following day, a volume of 200 μL of a solution containing 10 μmol/L thioflavin T and 50 μmol/L Na2HPO4 pH 6.5 was added to each well. Fluorescence was measured in a VICTOR 2 (WALLAC) fluorescence spectrophotometer (λex=450 nm, λem=486 nm) (Findelis M. A et al).
The data were expressed as percent of residual aggregated β-A and, when possible, the dose reducing the aggregate formation of the 50% (IC50) was estimate.
The % of aggregation was determinated by the following formula:
(βAmyloid+Test compound)−(Blank+Test compound)×100

[2] = Blood brain barrier crossing: plasma and brain concentrations after s.c. injection; assay type: in vivo; conditions: mice, s.c. 25 mg/kg
Protocol: In order to obtain basic information on the concentration achieved in brain of rodents after parental doses and their relationship with plasma concentrations, mice and rats were used. […] Compounds were determined in plasma by high-performance liquid chromatography (HPLC) after a solid liquid extraction procedure. Briefly, Oasis HLB 1 cc cartridges were pre-wetted with methanol and distilled water. Then internal standard, mouse plasma or rat plasma were added and the cartridges were washed with mater-methanoland methanol, interrupting the vacuum before the column was completely dry after each passage. The compound was removed by eluiting the cartridges with methanol and evaporated to dryness under nitrogen. The residue was dissolved in the mobile phase centrifuged and analyzed by HPLC with UV detection (224 nm).
Separation was done on a pBondapack C18 column protected by a LiChrosphere RP-8 pre-column at room temperature. The mobile phase was CH3CN:CH3OH:0.001M KH2PO4 (40:10:50 v/v) delivered at a flow rate of 1.2 mL/min.
Brain tissue was homogenized (1 g/10 ml) in CH3CN:0.001M phosphate buffer, pH 7.4 and a volume containing approximately 100 mg of tissue was centrifuged. The supernatant was processed as for plasma.
Mean brain and plasma area under the concentration-time curve (AUCt) were determined using the linear trapezoidal rule and extrapolated to infinity (AUC) by the concentration method. The elimination rate constant was calculated by least squares regression analysis of the terminal log-linear portion of the plasma and the brain drug concentration curves. The maximum concentration (Cmax) and the time (tmax) of its occurrence were read directly from the plasma and brain concentration time data.

melting point: 153 to 154 °C
SMILES: COc1ccc(Nc2ccc(OC)c3ccccc23)cc1C(=O)O [ST2174, 2-methoxy-5-[(4-methoxy-1-naphthyl)amino]benzoic acid]

IC50 [1]: 1 µM
SMILES: Oc1ccc(Nc2ccc(O)c3ccccc23)cc1 [ST2177, 4-(4-hydroxyanilino)-1-naphthol]

IC50 [1]: 5.7 µM
SMILES: COc1ccc2ccccc2c1Nc1c(OC)ccc2ccccc12 [ST2761, 2-methoxy-N-(2-methoxy-1-naphthyl)naphthalen-1-amine]

IC50 [1]: 2.4 µM
SMILES: Oc1c(Nc2ccccc2)ccc2ccccc12 [ST2762, 1-hydroxy-N-phenylnaphthalen-2-aminiumchloride]

melting point: 108 to 110 °C
SMILES: COc1ccccc1Nc1ccc(OC)c2ccccc12 [ST2879, N-(4-methoxy-1-naphthyl)-N-(2-methoxyphenyl)amine]

More lines, now with the values behind:

SMILES: Oc1ccc2ccccc2c1Cc1c(O)ccc2ccccc12 [ST1859, 1-[(2-hydroxy-1-naphthyl)methyl]-2-naphthol, reference compound]
IC50 [1]: 23.5 µM

SMILES: COc1ccc(Nc2ccccc2)c2ccccc12 [ST2173, 4-methoxy-N-phenyl-1-naphthalenamine]
melting point: 141 to 143 °C

SMILES: COc1ccc(Nc2ccc(OC)c3ccccc23)cc1 [ST2175, 4-methoxy-N-(4-methoxyphenyl)-1-naphthalenamine]
IC50 [1]: 5.59 µM | Cmax, Brain ([2]; brain): 410 ng/mL or L | AUCt, Brain ([2]; brain, linear trapezoidal rule): 1643 ng/L · h or g | Kp at 0.25 h ([2]; mouse, brain, sc, 25 mg/kg, 15 min, read-out: Brain to Plasma ratio): 2.3 | Kp at 0.5 h ([2]; mouse, brain, sc, 25 mg/kg, 30 min, read-out: Brain to Plasma ratio): 3.6 | Kp at 1 h ([2]; mouse, brain, sc, 25 mg/kg, 60 min, read-out: Brain to Plasma ratio): 2.5 | Kp at 2 h ([2]; mouse, brain, sc, 25 mg/kg, 120 min, read-out: Brain to Plasma ratio): 2 | Kp at 3 h ([2]; mouse, brain, sc, 25 mg/kg, 180 min, read-out: Brain to Plasma ratio): 1.8 | Kp at 4 h ([2]; mouse, brain, sc, 25 mg/kg, 240 min, read-out: Brain to Plasma ratio): 1.3 | Kp at 6 h ([2]; mouse, brain, sc, 25 mg/kg, 360 min, read-out: Brain to Plasma ratio): 1.7 | Kp ([2]; mouse, brain, sc, 25 mg/kg, read-out: AUCt, Brain to Plasma ratio): 1.9 | Kp ([2]; mouse, brain, sc, 25 mg/kg, read-out: Cmax, Brain to Plasma ratio): 2.5 | concentration at 15 min ([2]; mouse, brain, sc, 15 min, read-out: Brain (mean ± SD)): 321 ± 130 ng/g | concentration at 30 min ([2]; mouse, brain, sc, 30 min, read-out: Brain (mean ± SD)): 398 ± 269 ng/g | concentration at 60 min ([2]; mouse, brain, sc, 60 min, read-out: Brain (mean ± SD)): 410 ± 192 ng/g | concentration at 120 min ([2]; mouse, brain, sc, 120 min, read-out: Brain (mean ± SD)): 289 ± 61 ng/g | concentration at 180 min ([2]; mouse, brain, sc, 180 min, read-out: Brain (mean ± SD)): 253 ± 77 ng/g | concentration at 240 min ([2]; mouse, brain, sc, 240 min, read-out: Brain (mean ± SD)): 220 ± 61 ng/g | concentration at 360 min ([2]; mouse, brain, sc, 360 min, read-out: Brain (mean ± SD)): 232 ± 94 ng/g | concentration at 15 min ([2]; mouse, plasma, sc, 15 min, read-out: Plasma (mean ± SD)): 138 ng/mL | concentration at 30 min ([2]; mouse, plasma, sc, 30 min, read-out: Plasma (mean ± SD)): 109 ng/mL | concentration at 60 min ([2]; mouse, plasma, sc, 60 min, read-out: Plasma (mean ± SD)): 164 ± 18 ng/mL | concentration at 120 min ([2]; mouse, plasma, sc, 120 min, read-out: Plasma (mean ± SD)): 142 ± 16 ng/mL | concentration at 180 min ([2]; mouse, plasma, sc, 180 min, read-out: Plasma (mean ± SD)): 139 ± 31 ng/mL | concentration at 240 min ([2]; mouse, plasma, sc, 240 min, read-out: Plasma (mean ± SD)): 159 ± 38 ng/mL | concentration at 360 min ([2]; mouse, plasma, sc, 360 min, read-out: Plasma (mean ± SD)): 130 ± 13 ng/mL | Tmax ([2]; mouse, sc, brain, read-out: tmax, Brain (converted)): 1 h | Cmax ([2]; mouse, sc, plasma): 164 ng/mL | AUC(0-t) ([2]; mouse, sc, plasma, linear trapezoidal rule, read-out: AUCt, Plasma): 850 ng·h/mL | Tmax ([2]; mouse, sc, plasma, read-out: tmax, Plasma (converted)): 1 h

SMILES: Oc1ccc(Nc2ccccc2)c2ccccc12 [ST2176, 4-anilino-1-naphthol]
IC50 [1]: 5.43 µM

SMILES: COC(=O)c1ccc(Nc2ccc(O)c3ccccc23)cc1 [ST2178, methyl 4-[(4-hydroxy-1-naphthyl)amino]benzoate]
melting point: 188 to 190 °C | IC50 [1]: 5.13 µM

SMILES: O=C(O)c1ccccc1Nc1c(O)ccc2ccccc12 [ST2757, 2-[(2-hydroxy-1-naphthyl)amino]benzoic acid]
IC50 [1]: 14.1 µM

SMILES: COc1ccc(Nc2ccc([N+](=O)[O-])c3ccccc23)cc1 [ST3451, N-(4-methoxyphenyl)-4-nitronaphthalen-1-amine]
IC50 [1]: 2.7 µM

SMILES: CSc1ccc(Nc2ccc(N(C)C)c3ccccc23)cc1 [ST3458, N,N-dimethyl-N′-[4-(methylthio)phenyl]naphthalene-1,4-diamine dihydrochloride]
IC50 [1]: 2.2 µM

SMILES: O=C(O)c1ccc(Nc2ccc3ccccc3c2O)cc1 [ST3459, 4-[(1-hydroxy-2-naphthyl)amino]benzoic acid]
IC50 [1]: 2.6 µM

SMILES: Oc1ccc(Sc2ccc(O)c3ccccc23)cc1 [ST3501, 4-[(4-hydroxyphenyl)thio]-1-naphthol]
IC50 [1]: 7.2 µM
